According to patent USRE47689E1, “Compounds for treating spinal muscular atrophy” (PTC Therapeutics, Inc., priority 2011, dated 2019):

Key:
Smn protein = Smn protein assay in cultured cells (SMN HTRF); format: cell-based, human; conditions: 48 hours; for Smn protein expression: SMA Type 1 patient fibroblast cells, SMN HTRF assay; for maximum fold (Fold) increase of Smn protein: SMA patient fibroblast cells, 7-point concentration data, fold increase relative to vehicle control (SMN HTRF)
Summary of the method: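 Smn in SMA fibroblast lysates, measured by anti-SMN HTRF after 48 h compound exposure; EC1.5x from fold change over vehicle.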

[1] = system: full length and Δ7 SMN2 mRNAs; assay: SMN2 mRNA RT-qPCR splicing assay in animal tissues; format: in vivo, mouse; conditions: C/C-allele SMA mice, brain and muscle, 10 mg/kg oral gavage twice per day for 10 days
Procedure: The reverse transcription-quantitative PCR-based (RT-qPCR) assay is used to quantify the levels of the full length and Δ7 SMN2 mRNAs in tissues from mice treated with test compound.
Protocol. C/C-allele SMA mice are treated by oral gavage two times per day for 10 days with test compounds resuspended in 0.5% HPMC and 0.1% Tween-80. Tissue samples were collected and snap frozen for RNA purification.
Tissue samples (20-40 mg) are homogenized in QIAzol Lysis Reagent for 2 minutes at 20 Hz in the TissueLyser II using one stainless steel bead. After addition of chloroform, the homogenate is separated into aqueous and organic phases by centrifugation. RNA partitioned to the upper, aqueous phase is extracted and ethanol is added to provide appropriate binding conditions. The sample is then applied to the RNeasy spin column from the RNeasy Mini Kit, where total RNA binds to the membrane. The RNA is eluted in RNase-free water then stored at −20° C. and subsequently analyzed using the TaqMan RT-qPCR on the 7900HT Thermocycler. Total RNA is diluted ten fold and 2.5 μL of the diluted sample is added to the TaqMan RT-qPCR mixture.
SMN2 spliced products are identified using the following primers and probes in Table 7. Primer SMN FL Forward B (SEQ ID NO. 7) hybridizes to a nucleotide sequence in exons 7 and 8, primer SMN Δ7 Forward B (SEQ ID NO. 8) hybridizes to a nucleotide sequence in exons 6 and 8, primer SMN Reverse B (SEQ ID NO. 9) hybridizes to a nucleotide sequence in exon 8, probe SMN Probe B (SEQ ID NO. 10) hybridizes to a nucleotide sequence in exon 8. These primers and probe hybridize to nucleotide sequences common to human SMN1 and SMN2 mRNAs. Since the SMA patient cells used in Example 5 contain only the SMN2 gene, RT-qPCR can quantify only SMN2 full-length and Δ7 mRNAs.
The SMN forward and reverse primers are used at final concentrations of 0.4 μM. The SMN probe is used at a final concentration of 0.15 μM. The SMN-GAPDH Mix (10 μL total volume) is prepared by combining 5 μL of 2×RT-PCR buffer, 0.4 μL of 25×RT-PCR enzyme mix, 0.5 μL of 20×GAPDH primer-probe mix, 1.505 μL of water, 2.5 μL of RNA solution, 0.04 μL of 100 μM forward primer, 0.04 μL of 100 μM reverse primer, and 0.015 μL of 100 μM SMN probe. […]
The increase of SMN2 FL and decrease in SMN2 Δ7 mRNAs relative to those in tissues from animals treated with vehicle control are determined from real-time PCR data using a modified ΔΔCt method (as described in Livak and Schmittgen, Methods, 2001, 25:402-8). The amplification efficiency E is calculated from the slope of the amplification curve for SMN2 FL, SMN2 Δ7, and GAPDH individually. The abundances of SMN2 FL, SMN2 Δ7, and GAPDH are then calculated as (1+E)^−Ct, where Ct is the threshold value for each amplicon. […]

**Q.** What does the source list for `CC(C)NCCc1ccc2cc(-c3nc4c(Cl)cccc4s3)c(=O)oc2c1` [Cpd 35, 3-(4-chloro-1,3-benzothiazol-2-yl)-7-[2-(propan-2-ylamino)ethyl]-2H-chromen-2-one]?
**A.** Smn protein expression (Smn protein): dose dependent increase in Smn protein expression; maximum fold (Fold) increase of Smn protein (Smn protein): * (maximum fold increase of ≤1.2); SMN2 FL mRNA relative to vehicle [1]: substantially more SMN2 FL mRNA; SMN2 Δ7 mRNA relative to vehicle [1]: less SMN2 Δ7 mRNA

**Q.** What does the source list for `CCN1CCN(c2ccc3cc(-c4cn5cc(C)nc(C)c5n4)c(=O)oc3c2)C[C@@H]1C` [Cpd 626, 3-(6,8-dimethylimidazo[1,2-a]pyrazin-2-yl)-7-[(3S)-4-ethyl-3-methylpiperazin-1-yl]-2H-chromen-2-one]?
**A.** EC1.5x (concentration giving 1.5-fold Smn protein increase) (Smn protein; SMA Type 1 patient fibroblast cells (GM03813), 7-point concentration curve, SMN HTRF, concentration producing 1.5 times Smn protein vs DMSO vehicle control, read-out: EC1.5x for Smn protein expression): < 300 nM; Smn protein expression (Smn protein): dose dependent increase in Smn protein expression; maximum fold (Fold) increase of Smn protein (Smn protein): **** (fold increase between >1.5 and ≤1.65); SMN2 FL mRNA relative to vehicle [1]: substantially more SMN2 FL mRNA; SMN2 Δ7 mRNA relative to vehicle [1]: less SMN2 Δ7 mRNA
